# Assays:
# physchem = conditions: 1-octanol/PBS, pH 7.4
# [1] = Ratio of drug uptake in 129/C57BL/6J mouse brain to plasma at 30 mg/kg, po after 2 hrs by UHPLC/MS/MS analysis; assay type: ADME, organism-based; conditions: brain and plasma, read-out: BPR
Structure (SMILES),logD at 1 h (physchem),Kp at 2 h [1]
COc1ccc(F)c([C@H](C)Nc2cc(F)c(S(=O)(=O)Nc3cscn3)cc2Cl)c1,3.4,0.28
O=S(=O)(Nc1cscn1)c1cc(Cl)c(NCc2cc(CN3CCC3)ccc2F)cc1F,1.4,–
C[C@H](Nc1cc(F)c(S(=O)(=O)Nc2cscn2)cc1Cl)c1cc(CN2CCC2)ccc1F,1.5,–

# Reference: ChEMBL document CHEMBL4414586, “Identification of CNS-Penetrant Aryl Sulfonamides as Isoform-Selective NaV1.6 Inhibitors with Efficacy in Mouse Models of Epilepsy” (J Med Chem, 2019)
